Source: publication PMC8175484, “Identification and function of ETH receptor networks in the silkworm Bombyx mori” (Scientific Reports, 2021)

Legend:
[1] = test system: isolated CNS of pharate 5th instar larvae; test: Electrophysiology: extracellular motor bursts recorded in nerves of abdominal ganglia of the isolated intact or desheathed CNS; parameters: species or system Bombyx mori; conditions: for ecdysis burst pattern, CCAP or MIPs applied alone: CCAP alone n = 4, MIP-I only or MIP-I-VII mixture n = 5; for time to burst patterns characteristic for pre-ecdysis I and II in dorsal and ventral nerves: isolated nerve cords
Experimental: Specific roles of various neuropeptides produced by the ETHR neurons were determined using electrophysiology technique in the isolated intact or desheathed CNS. Sharp forceps were used to remove the neurolema on the dorsal or ventral side of selected ganglia under physiological saline (see above) and dorsal or ventral nerves of the abdominal ganglia (AG1-7) were attached to plastic suction electrodes. A mixture or individual neuropeptides were then applied in a 300 μl saline bath and induced extracellular motor bursts were recorded using differential AC amplifier 1700 (A-M Systems, Carlsborg, WA, USA) and Axoscope program (Axon Instruments, Union City, CA, USA). Synthetic peptides used in the assay are listed in Supplementary Table S2 online. A mixture of MIPs was adjusted according to its copy number in the precursor: MIP-I (five copies), MIP-II,V (two copies), MIP-III,IV,VI,VII (one copy each)[28].

ETHR-A (BNGR-A6-A) = test: Aequorin-based calcium mobilization assay, ETHR-A transiently expressed in CHO-K1 cells; format: cell-based, Bombyx mori
Experimental: Pharmacological characterization of ETHR-A (BNGR-A6-A) and ETHR-B (BNGR-A6-B) receptors were carried out in the Chinese hamster ovary (CHO-K1) cells. For expression in CHO-K1 cells, the entire open reading frame for each ETHR was inserted into pcDNA3.1 ( +) vector (Invitrogen, Carlsbad, CA, USA) with a mammalian Kozak translation initiation sequence incorporated at 5´ end and confirmed by DNA sequencing prior to use. The primers used to clone BNGR-A6-A and BNGR-A6-B are listed in Supplementary Table S1 online. For the assay, each receptor was expressed together with the bioluminescent calcium-sensitive reporter aequorin and chimeric Gqs alpha subunit protein that couples receptor activation to the phospholipase C and intracellular Ca^2+ mobilization. […]
The procedures used for the receptor assays were described previously. […] Following cell application to a well, emitted luminescence corresponding to the ligand-induced intracellular Ca^2+ release was monitored in 0.5 s intervals for 20 s using the GloMax-Multi Detection System (Promega, Madison, WI, USA). […] All experiments were replicated three times and collected output data calculated and further analyzed in Excel (Microsoft, Redmond, WA, USA) and GraphPad Prism 6 software (GraphPad Software Inc.). The concentration-dependent response curves, as well as the corresponding EC50 values were calculated using the Prism software. […]

pharate larvae = test: ETH injection into pharate larvae, ecdysis behavior; format: in vivo, Bombyx mori; conditions: pharate larvae injected with ETH at 8–15 h prior to ecdysis; fail to shed the old cuticle
Experimental: Under normal conditions, the ecdysis behavior lasts for ∼10 min and terminates immediately after the old cuticle is completely shed from the last abdominal segment. However, pharate larvae injected with ETH at 8–15 h prior to ecdysis fail to shed the old cuticle and show strong ecdysis contractions for 1–2 h. […] To determine a site of sensory input that terminates the ecdysis behavior, we peeled off a narrow ring of the old cuticle on abdominal segments 1, 3, 5 or 6 of late pharate 5th instar larvae 1–3 h prior to ecdysis. These larvae invariably initiated normal pre-ecdysis behaviors at the expected time and after ∼1 h switched to peristaltic waves of ecdysis contractions. […] In spite of presence of the old cuticle on the head, thorax and anterior abdomen, strong ecdysis contractions ceased immediately after the posterior cuticle was shed from the last abdominal segment in all larvae (n = 14).

“GQSNNNRGRVLRCFFNAVTCF-OH [AST-CC, allatostatin CC, allatostatin CC of Bombyx mori]” was tested, and the “time to onset of ecdysis bursts” value ([1]; desheathed CNS dissected 2–6 h prior to ecdysis, 0,3–1 μM, n = 14) was 5 to 12 min and the “response (ecdysis motor pattern) of earlier pharate or feeding stages” value ([1]; desheathed CNS, 0,3–1 μM, n = 9) was “irresponsive”.
AWQDLNSAWa [MIP-I] was tested, and the “ecdysis burst pattern, CCAP or MIPs applied alone” value ([1]; desheathed CNS) was “weak prolonged synchronous bursts or no rhythmic pattern”.
“NADLINSLLALPKDMNDAa [PDF, pigment dispersing factor, pigment dispersing factor of Bombyx mori]” was tested, and the “time to onset of pre-ecdysis II bursts (asynchronous motoneuron activity) in ventral nerves of AG2-7” value ([1]; desheathed CNS, 0.3–1 μM, n = 8) was 3 to 5 min.
With “SFIKPN.NVPRVa [PETH, pre-ecdysis triggering hormone, pre-ecdysis triggering hormone from B. mori, synthetic peptide]” the EC50 (ETHR-A (BNGR-A6-A); CHO-K1 cells co-expressing aequorin and chimeric Gqs alpha subunit, luminescence as % of maximum peak, mean of n = 3, read-out: EC50, BomETHR-A) was 9.43 nM, the “fold lower sensitivity of ETHR-A to PETH than to ETH” value (ETHR-A (BNGR-A6-A); from concentration-response curves in CHO cells) was ~ 20 fold and the “time to burst patterns characteristic for pre-ecdysis I and II in dorsal and ventral nerves” value ([1]; 0.3–1 μM, n = 14) was 5 to 7 min.
In the case of “PFCNAFTGCa [CCAP, crustacean cardioactive peptide]”, the “ecdysis burst pattern, CCAP or MIPs applied alone” value ([1]; desheathed CNS) is reported as “less effective”.
With “SNEAISPFDQGMMGYVIKTNKNIPRMa [ETH, ecdysis triggering hormone, ecdysis triggering hormone from B. mori, synthetic peptide]” the “duration of strong ecdysis contractions” value (pharate larvae) was 1 to 2 h, the “time to initiation of clear ecdysis bursts after ETH” value ([1]; desheathed CNS activated by ETH, n = 10) was 27 to 35 min and the “duration of pre-ecdysis before switch to ecdysis motor patterns (ecdysis activation)” value ([1]; isolated CNS of pharate larvae treated with ETH, dorsal nerves AG4-7) was ~ 40 min. For the same substance, the “time to burst patterns characteristic for pre-ecdysis I and II in dorsal and ventral nerves” value ([1]; 0.3–1 μM, n = 14) was 5 to 7 min.
